Source: ChEMBL document CHEMBL3044736, “Synthesis, characterization, solvatochromic properties, and antimicrobial evaluation of 5-acetyl-2-thioxo-dihydro-pyrimidine-4,6-dione-based chalcones” (2013)
In brackets after ≈: the same amount, converted by molar mass.

Legend:
Type in all cases: functional
[1] = tested on: Candida albicans; test: Antimicrobial activity against Candida albicans MTCC 227 by agar cup diffusion method
[2] = tested on: Penicillium; test: Antimicrobial activity against Penicillium wild strain by agar cup diffusion method
[3] = tested on: Aspergillus clavatus; test: Antimicrobial activity against Aspergillus clavatus MTCC 1323 by agar cup diffusion method
[4] = tested on: Trichophyton rubrum; test: Antimicrobial activity against Trichophyton rubrum MTCC 296 by agar cup diffusion method
[5] = tested on: Klebsiella pneumoniae; test: Antimicrobial activity against Klebsiella pneumoniae MTCC 109 by agar cup diffusion method
[6] = tested on: Escherichia coli; test: Antimicrobial activity against Escherichia coli MTCC 443 assessed as diameter of growth inhibition zone at 250 ug/ml after 18-24 hr by agar cup diffusion method; details: read-out: DIZ
[7] = tested on: Pseudomonas aeruginosa; test: Antimicrobial activity against Pseudomonas aeruginosa MTCC 1688 assessed as diameter of growth inhibition zone at 50 ug/ml after 18-24 hr by agar cup diffusion method; details: read-out: DIZ
[8] = tested on: Staphylococcus aureus; test: Antimicrobial activity against Staphylococcus aureus MTCC 96 assessed as diameter of growth inhibition zone at 250 ug/ml after 18-24 hr by agar cup diffusion method; details: read-out: DIZ
[9] = tested on: Trichophyton rubrum; test: Antimicrobial activity against Trichophyton rubrum MTCC 296 assessed as diameter of growth inhibition zone at 50 ug/ml after 48-96 hr by agar cup diffusion method; details: read-out: DIZ
[10] = tested on: Escherichia coli; test: Antimicrobial activity against Escherichia coli MTCC 443 assessed as diameter of growth inhibition zone at 25 ug/ml after 18-24 hr by agar cup diffusion method; details: read-out: DIZ
[11] = tested on: Klebsiella pneumoniae; test: Antimicrobial activity against Klebsiella pneumoniae MTCC 109 assessed as diameter of growth inhibition zone at 250 ug/ml after 18-24 hr by agar cup diffusion method; details: read-out: DIZ
[12] = tested on: Trichophyton rubrum; test: Antimicrobial activity against Trichophyton rubrum MTCC 296 assessed as diameter of growth inhibition zone at 100 ug/ml after 48-96 hr by agar cup diffusion method; details: read-out: DIZ
[13] = tested on: Penicillium; test: Antimicrobial activity against Penicillium wild strain assessed as diameter of growth inhibition zone at 50 ug/ml after 48-96 hr by agar cup diffusion method; details: read-out: DIZ
[14] = tested on: Candida albicans; test: Antimicrobial activity against Candida albicans MTCC 227 assessed as diameter of growth inhibition zone at 100 ug/ml after 48-96 hr by agar cup diffusion method; details: read-out: DIZ
[15] = tested on: Penicillium; test: Antimicrobial activity against Penicillium wild strain assessed as diameter of growth inhibition zone at 100 ug/ml after 48-96 hr by agar cup diffusion method; details: read-out: DIZ
[16] = tested on: Streptococcus pyogenes; test: Antimicrobial activity against Streptococcus pyogenes MTCC 442 by agar cup diffusion method
[17] = tested on: Pseudomonas aeruginosa; test: Antimicrobial activity against Pseudomonas aeruginosa MTCC 1688 assessed as diameter of growth inhibition zone at 250 ug/ml after 18-24 hr by agar cup diffusion method; details: read-out: DIZ
[18] = tested on: Klebsiella pneumoniae; test: Antimicrobial activity against Klebsiella pneumoniae MTCC 109 assessed as diameter of growth inhibition zone at 100 ug/ml after 18-24 hr by agar cup diffusion method; details: read-out: DIZ
[19] = tested on: Staphylococcus aureus; test: Antimicrobial activity against Staphylococcus aureus MTCC 96 assessed as diameter of growth inhibition zone at 100 ug/ml after 18-24 hr by agar cup diffusion method; details: read-out: DIZ
[20] = tested on: Streptococcus pyogenes; test: Antimicrobial activity against Streptococcus pyogenes MTCC 442 assessed as diameter of growth inhibition zone at 50 ug/ml after 18-24 hr by agar cup diffusion method; details: read-out: DIZ
[21] = tested on: Streptococcus pyogenes; test: Antimicrobial activity against Streptococcus pyogenes MTCC 442 assessed as diameter of growth inhibition zone at 25 ug/ml after 18-24 hr by agar cup diffusion method; details: read-out: DIZ
[22] = tested on: Klebsiella pneumoniae; test: Antimicrobial activity against Klebsiella pneumoniae MTCC 109 assessed as diameter of growth inhibition zone at 50 ug/ml after 18-24 hr by agar cup diffusion method; details: read-out: DIZ
[23] = tested on: Escherichia coli; test: Antimicrobial activity against Escherichia coli MTCC 443 by agar cup diffusion method
[24] = tested on: Streptococcus pyogenes; test: Antimicrobial activity against Streptococcus pyogenes MTCC 442 assessed as diameter of growth inhibition zone at 250 ug/ml after 18-24 hr by agar cup diffusion method; details: read-out: DIZ
[25] = tested on: Streptococcus pyogenes; test: Antimicrobial activity against Streptococcus pyogenes MTCC 442 assessed as diameter of growth inhibition zone at 100 ug/ml after 18-24 hr by agar cup diffusion method; details: read-out: DIZ
[26] = tested on: Trichophyton rubrum; test: Antimicrobial activity against Trichophyton rubrum MTCC 296 assessed as diameter of growth inhibition zone at 250 ug/ml after 48-96 hr by agar cup diffusion method; details: read-out: DIZ
[27] = tested on: Pseudomonas aeruginosa; test: Antimicrobial activity against Pseudomonas aeruginosa MTCC 1688 by agar cup diffusion method
[28] = tested on: Escherichia coli; test: Antimicrobial activity against Escherichia coli MTCC 443 assessed as diameter of growth inhibition zone at 50 ug/ml after 18-24 hr by agar cup diffusion method; details: read-out: DIZ
[29] = tested on: Aspergillus clavatus; test: Antimicrobial activity against Aspergillus clavatus MTCC 1323 assessed as diameter of growth inhibition zone at 50 ug/ml after 48-96 hr by agar cup diffusion method; details: read-out: DIZ
[30] = tested on: Escherichia coli; test: Antimicrobial activity against Escherichia coli MTCC 443 assessed as diameter of growth inhibition zone at 100 ug/ml after 18-24 hr by agar cup diffusion method; details: read-out: DIZ
[31] = tested on: Pseudomonas aeruginosa; test: Antimicrobial activity against Pseudomonas aeruginosa MTCC 1688 assessed as diameter of growth inhibition zone at 25 ug/ml after 18-24 hr by agar cup diffusion method; details: read-out: DIZ
[32] = tested on: Candida albicans; test: Antimicrobial activity against Candida albicans MTCC 227 assessed as diameter of growth inhibition zone at 50 ug/ml after 48-96 hr by agar cup diffusion method; details: read-out: DIZ
[33] = tested on: Candida albicans; test: Antimicrobial activity against Candida albicans MTCC 227 assessed as diameter of growth inhibition zone at 25 ug/ml after 48-96 hr by agar cup diffusion method; details: read-out: DIZ
[34] = tested on: Trichophyton rubrum; test: Antimicrobial activity against Trichophyton rubrum MTCC 296 assessed as diameter of growth inhibition zone at 25 ug/ml after 48-96 hr by agar cup diffusion method; details: read-out: DIZ
[35] = tested on: Staphylococcus aureus; test: Antimicrobial activity against Staphylococcus aureus MTCC 96 by agar cup diffusion method
[36] = tested on: Penicillium; test: Antimicrobial activity against Penicillium wild strain assessed as diameter of growth inhibition zone at 250 ug/ml after 48-96 hr by agar cup diffusion method; details: read-out: DIZ
[37] = tested on: Aspergillus clavatus; test: Antimicrobial activity against Aspergillus clavatus MTCC 1323 assessed as diameter of growth inhibition zone at 250 ug/ml after 48-96 hr by agar cup diffusion method; details: read-out: DIZ
[38] = tested on: Staphylococcus aureus; test: Antimicrobial activity against Staphylococcus aureus MTCC 96 assessed as diameter of growth inhibition zone at 25 ug/ml after 18-24 hr by agar cup diffusion method; details: read-out: DIZ
[39] = tested on: Staphylococcus aureus; test: Antimicrobial activity against Staphylococcus aureus MTCC 96 assessed as diameter of growth inhibition zone at 50 ug/ml after 18-24 hr by agar cup diffusion method; details: read-out: DIZ
[40] = tested on: Aspergillus clavatus; test: Antimicrobial activity against Aspergillus clavatus MTCC 1323 assessed as diameter of growth inhibition zone at 100 ug/ml after 48-96 hr by agar cup diffusion method; details: read-out: DIZ
[41] = tested on: Candida albicans; test: Antimicrobial activity against Candida albicans MTCC 227 assessed as diameter of growth inhibition zone at 250 ug/ml after 48-96 hr by agar cup diffusion method; details: read-out: DIZ
[42] = tested on: Pseudomonas aeruginosa; test: Antimicrobial activity against Pseudomonas aeruginosa MTCC 1688 assessed as diameter of growth inhibition zone at 100 ug/ml after 18-24 hr by agar cup diffusion method; details: read-out: DIZ
[43] = tested on: Penicillium; test: Antimicrobial activity against Penicillium wild strain assessed as diameter of growth inhibition zone at 25 ug/ml after 48-96 hr by agar cup diffusion method; details: read-out: DIZ
[44] = tested on: Klebsiella pneumoniae; test: Antimicrobial activity against Klebsiella pneumoniae MTCC 109 assessed as diameter of growth inhibition zone at 25 ug/ml after 18-24 hr by agar cup diffusion method; details: read-out: DIZ
[45] = tested on: Aspergillus clavatus; test: Antimicrobial activity against Aspergillus clavatus MTCC 1323 assessed as diameter of growth inhibition zone at 25 ug/ml after 48-96 hr by agar cup diffusion method; details: read-out: DIZ

SMILES: COC1=CC(=O)C[C@@H](C)[C@]12Oc1c(Cl)c(OC)cc(OC)c1C2=O [GRISEOFULVIN]
- MIC [1]: 100 µg/mL (≈ 283 µM)
- MIC [2]: 100 µg/mL (≈ 283 µM)
- MIC [3]: 100 µg/mL (≈ 283 µM)
- MIC [4]: 500 µg/mL (≈ 1420 µM)

SMILES: O=C(/C=C/c1ccc2ccccc2c1)C1C(=O)NC(=S)NC1=O
- MBC [5]: 200 µg/mL (≈ 617 µM)
- MIC [5]: 125 µg/mL (≈ 385 µM)
- zone of inhibition at 250 µg/mL [6]: 21 mm
- zone of inhibition at 50 µg/mL [7]: 12 mm
- MFC [1]: > 1000 µg/mL
- MIC [1]: > 1000 µg/mL
- zone of inhibition at 250 µg/mL [8]: 19 mm
- zone of inhibition at 50 µg/mL [9]: 20 mm
- zone of inhibition at 25 µg/mL [10]: 14 mm
- zone of inhibition at 250 µg/mL [11]: 20 mm
- zone of inhibition at 100 µg/mL [12]: 22 mm
- zone of inhibition at 50 µg/mL [13]: 18 mm
- zone of inhibition at 100 µg/mL [14]: 24 mm
- zone of inhibition at 100 µg/mL [15]: 21 mm
- MBC [16]: 250 µg/mL (≈ 771 µM)
- MIC [16]: 250 µg/mL (≈ 771 µM)
- MFC [2]: 1000 µg/mL (≈ 3080 µM)
- MIC [2]: 1000 µg/mL (≈ 3080 µM)
- zone of inhibition at 250 µg/mL [17]: 19 mm
- zone of inhibition at 100 µg/mL [18]: 18 mm
- zone of inhibition at 100 µg/mL [19]: 15 mm
- MFC [3]: > 1000 µg/mL
- MIC [3]: > 1000 µg/mL
- zone of inhibition at 50 µg/mL [20]: 16 mm
- zone of inhibition at 25 µg/mL [21]: 14 mm
- zone of inhibition at 50 µg/mL [22]: 15 mm
- MBC [23]: 500 µg/mL (≈ 1540 µM)
- MIC [23]: 250 µg/mL (≈ 771 µM)
- zone of inhibition at 250 µg/mL [24]: 21 mm
- zone of inhibition at 100 µg/mL [25]: 18 mm
- zone of inhibition at 250 µg/mL [26]: 23 mm
- MBC [27]: 125 µg/mL (≈ 385 µM)
- MIC [27]: 100 µg/mL (≈ 308 µM)
- zone of inhibition at 50 µg/mL [28]: 16 mm
- zone of inhibition at 50 µg/mL [29]: 20 mm
- zone of inhibition at 100 µg/mL [30]: 18 mm
- zone of inhibition at 25 µg/mL [31]: 10 mm
- zone of inhibition at 50 µg/mL [32]: 22 mm
- zone of inhibition at 25 µg/mL [33]: 22 mm
- zone of inhibition at 25 µg/mL [34]: 18 mm
- MBC [35]: 250 µg/mL (≈ 771 µM)
- MIC [35]: 200 µg/mL (≈ 617 µM)
- zone of inhibition at 250 µg/mL [36]: 23 mm
- zone of inhibition at 250 µg/mL [37]: 25 mm
- zone of inhibition at 25 µg/mL [38]: 10 mm
- zone of inhibition at 50 µg/mL [39]: 12 mm
- zone of inhibition at 100 µg/mL [40]: 25 mm
- zone of inhibition at 250 µg/mL [41]: 25 mm
- zone of inhibition at 100 µg/mL [42]: 15 mm
- zone of inhibition at 25 µg/mL [43]: 18 mm
- MFC [4]: 1000 µg/mL (≈ 3080 µM)
- MIC [4]: 1000 µg/mL (≈ 3080 µM)
- zone of inhibition at 25 µg/mL [44]: 14 mm
- zone of inhibition at 25 µg/mL [45]: 18 mm
